Activity calls are given as the source filed them. The calls are words filed in the database; no cut-off is given here.
Key:
[1] = system: CWR22R; experiment: Antitumor activity against human 22Rv1 cells xenografted in BALB/c nude mouse assessed as downregulation of AR-V7 level at 2.5 mg/kg, ip administered once every 4th day for 3 weeks; format: functional, organism-based
[2] = system: CWR22R; experiment: Antitumor activity against human 22Rv1 cells xenografted in BALB/c nude mouse assessed as downregulation of AR-FL level at 2.5 mg/kg, ip administered once every 4th day for 3 weeks; format: functional, organism-based
[3] = system: CWR22R; experiment: Induction of apoptosis in human 22Rv1 cells assessed as increase in caspase-3 level at 1 uM measured after 48 hrs by Western blot analysis; format: functional, cell-based
[4] = system: LNCaP; experiment: Induction of apoptosis in human LNCaP cells assessed as increase in PARP level at 1 uM measured after 48 hrs by Western blot analysis; format: functional, cell-based
[5] = system: LNCaP; experiment: Downregulation of AR-regulated FKBP5 protein level in human LNCaP cells measured for 48 hrs in presence of AR agonist, R1881 in charcoal stripped serum by Western blot analysis; format: functional, cell-based; conditions: dose 300-1000 nM
[6] = Toxicity in ICR mouse assessed as animal weight loss at 30 to 50 mg/kg, iv administered every second day for 14 days; format: organism-based; conditions: in vivo, 336 h, dose 30-50 mg/kg, time 14 day
[7] = Toxicity in ICR mouse assessed as heart damage at 30 to 50 mg/kg, iv administered every second day for 14 days; format: organism-based; conditions: in vivo, 336 h, dose 30-50 mg/kg, time 14 day
[8] = system: CWR22R; experiment: Antitumor activity against human 22Rv1 cells xenografted in BALB/c nude mouse assessed as reduction in tumor growth at 5 mg/kg, ip administered once every 4th day for 3 weeks; format: functional, organism-based
[9] = system: LNCaP; experiment: Downregulation of AR-regulated PSA protein level in human LNCaP cells measured for 48 hrs in presence of AR agonist, R1881 in charcoal stripped serum by Western blot analysis; format: functional, cell-based; conditions: dose 300-1000 nM
[10] = Biodistribution in BALB/c mouse kidney xenografted with human 22Rv1 cells at 2.5 mg/kg, iv measured at 0.5 to 1 hrs; format: ADME, organism-based, CWR22R; conditions: in vivo, time 0.5-1 hrs
[11] = system: LNCaP; experiment: Antitumor activity against human LNCaP cells xenografted in BALB/c nude mouse assessed as downregulation of PSA level at 5 mg/kg, ip administered once every 4th day for 3 weeks and measured at 2 hrs post dose; format: functional, organism-based
[12] = system: LNCaP; experiment: Induction of apoptosis in human LNCaP cells assessed as increase in caspase-3 level at 1 uM measured after 48 hrs by Western blot analysis; format: functional, cell-based
[13] = Downregulation of AR-regulated PSA protein level in human LNCaP cells at 300 nM measured for 48 hrs in presence of AR agonist, R1881 in charcoal stripped serum by Western blot analysis relative to control; format: functional
[14] = Toxicity in ICR mouse assessed as liver damage at 30 to 50 mg/kg, iv administered every second day for 14 days; format: organism-based; conditions: in vivo, 336 h, dose 30-50 mg/kg, time 14 day
[15] = Toxicity in ICR mouse assessed as kidney damage at 30 to 50 mg/kg, iv administered every second day for 14 days; format: organism-based; conditions: in vivo, 336 h, dose 30-50 mg/kg, time 14 day
[16] = system: LNCaP; experiment: Antitumor activity against human LNCaP cells xenografted in BALB/c nude mouse assessed as downregulation of TMPRSS2 level at 5 mg/kg, ip administered once every 4th day for 3 weeks and measured at 2 hrs post dose; format: functional, organism-based
[17] = Biodistribution in BALB/c mouse tumor xenografted with human 22Rv1 cells at 2.5 mg/kg, iv measured at 12 hrs; format: ADME, organism-based, Neoplasm, CWR22R; conditions: in vivo
[18] = system: CWR22R; experiment: Cytotoxicity against human 22Rv1 cells assessed as inhibition of cell growth incubated for 5 days in presence of AR agonist, R1881 by WST-1 assay; format: functional, cell-based; conditions: 22Rv1, 120 h
[19] = Biodistribution in BALB/c mouse lung xenografted with human 22Rv1 cells at 2.5 mg/kg, iv measured at 0.5 to 1 hrs; format: ADME, organism-based, CWR22R; conditions: in vivo, time 0.5-1 hrs
[20] = Toxicity in ICR mouse assessed as lung damage at 30 to 50 mg/kg, iv administered every second day for 14 days; format: organism-based; conditions: in vivo, 336 h, dose 30-50 mg/kg, time 14 day
[21] = system: LNCaP; experiment: Antitumor activity against human LNCaP cells xenografted in BALB/c nude mouse assessed as downregulation of AR-FL level at 5 mg/kg, ip administered once every 4th day for 3 weeks and measured at 2 hrs post dose; format: functional, organism-based
[22] = Biodistribution in BALB/c mouse tumor xenografted with human 22Rv1 cells at 2.5 mg/kg, iv measured at 0.5 to 1 hrs; format: ADME, organism-based, Neoplasm, CWR22R; conditions: in vivo, time 0.5-1 hrs
[23] = system: LNCaP; experiment: Cytotoxicity against AR-positive human LNCaP cells assessed as inhibition of cell growth incubated for 5 days in presence of AR agonist, R1881 in charcoal stripped serum by WST-1 assay; format: functional, cell-based; conditions: 120 h
[24] = Biodistribution in BALB/c mouse spleen xenografted with human 22Rv1 cells at 2.5 mg/kg, iv measured at 0.5 to 1 hrs; format: ADME, organism-based, CWR22R; conditions: in vivo, time 0.5-1 hrs
[25] = system: CWR22R; experiment: Induction of apoptosis in human 22Rv1 cells assessed as increase in PARP level at 1 uM measured after 48 hrs by Western blot analysis; format: functional, cell-based
[26] = Biodistribution in BALB/c mouse liver xenografted with human 22Rv1 cells at 2.5 mg/kg, iv measured at 0.5 to 1 hrs; format: ADME, organism-based, CWR22R; conditions: in vivo, time 0.5-1 hrs
[27] = system: LNCaP; experiment: Downregulation of AR-regulated TMPRSS2 protein level in human LNCaP cells measured for 48 hrs in presence of AR agonist, R1881 in charcoal stripped serum by Western blot analysis; format: functional, cell-based; conditions: dose 300-1000 nM
[28] = system: Androgen receptor (Homo sapiens), P10275 [UNDEFINED MUTATION]; experiment: Induction of AR-V7 degradation in human 22Rv1 cells measured upto 24 hrs by Western blot analysis; format: cell-based; conditions: dose 1000.0 nM
[29] = Downregulation of AR-regulated TMPRSS2 protein level in human LNCaP cells at 300 nM measured for 48 hrs in presence of AR agonist, R1881 in charcoal stripped serum by Western blot analysis relative to control; format: functional
[30] = Biodistribution in BALB/c mouse muscle tissue xenografted with human 22Rv1 cells at 2.5 mg/kg, iv measured at 0.5 to 1 hrs; format: ADME, organism-based, CWR22R; conditions: in vivo, time 0.5-1 hrs
[31] = system: Androgen receptor (Homo sapiens), P10275 [UNDEFINED MUTATION]; experiment: Induction of AR-V7 degradation in human 22Rv1 cells at 100 nM by Western blot analysis; format: cell-based; conditions: time <= 48.0 hrs, TDE = time-dependent effect
[32] = Biodistribution in BALB/c mouse plasma xenografted with human 22Rv1 cells at 2.5 mg/kg, iv measured at 0.5 to 1 hrs; format: ADME, organism-based, CWR22R; conditions: in vivo, time 0.5-1 hrs

Androgen receptor (Homo sapiens), P10275 [UNDEFINED MUTATION], sequence (P10275 whole entry, looked up, change not shown): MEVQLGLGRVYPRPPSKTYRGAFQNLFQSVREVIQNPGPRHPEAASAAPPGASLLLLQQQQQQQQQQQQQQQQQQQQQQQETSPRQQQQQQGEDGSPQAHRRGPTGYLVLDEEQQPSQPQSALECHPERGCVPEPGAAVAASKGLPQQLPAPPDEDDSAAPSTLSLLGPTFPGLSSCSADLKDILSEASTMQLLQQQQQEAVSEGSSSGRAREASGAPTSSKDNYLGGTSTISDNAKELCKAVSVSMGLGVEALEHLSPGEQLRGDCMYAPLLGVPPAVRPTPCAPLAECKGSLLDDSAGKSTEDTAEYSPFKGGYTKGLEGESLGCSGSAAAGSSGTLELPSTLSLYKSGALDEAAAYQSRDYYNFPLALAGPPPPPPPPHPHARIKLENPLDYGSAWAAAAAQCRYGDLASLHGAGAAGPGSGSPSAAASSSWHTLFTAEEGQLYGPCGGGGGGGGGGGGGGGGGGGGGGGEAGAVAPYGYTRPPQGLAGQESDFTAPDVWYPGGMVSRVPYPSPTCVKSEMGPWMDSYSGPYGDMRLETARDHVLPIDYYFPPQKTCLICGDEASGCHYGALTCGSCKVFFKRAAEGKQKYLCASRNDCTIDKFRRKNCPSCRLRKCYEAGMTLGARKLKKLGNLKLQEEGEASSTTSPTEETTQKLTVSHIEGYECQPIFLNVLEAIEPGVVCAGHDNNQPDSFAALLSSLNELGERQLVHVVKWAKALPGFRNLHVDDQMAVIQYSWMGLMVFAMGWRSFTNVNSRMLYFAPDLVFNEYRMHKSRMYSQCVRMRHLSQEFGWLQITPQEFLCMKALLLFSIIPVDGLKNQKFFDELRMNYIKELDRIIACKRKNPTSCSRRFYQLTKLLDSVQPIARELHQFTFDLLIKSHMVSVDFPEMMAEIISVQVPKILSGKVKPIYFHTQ

## CC(C)c1cc(-c2n[nH]c(=O)n2-c2ccc(CN3CCN(CC4CCN(c5ccc(C(=O)N[C@H]6CC[C@H](Oc7ccc(C#N)c(Cl)c7)CC6)nn5)CC4)CC3)cc2)c(O)cc1O
[1]
  Activity: Active
[2]
  Activity: Active
[3]
  Activity: Active
[4]
  Activity: Active
[5]
  Activity: Dose-Dependent Effect
[6]
  Activity: Non-Toxic
[7]
  Activity: Non-Toxic
[8]
  Activity: Active
[9]
  Activity: Dose-Dependent Effect
[10]
  Drug uptake: Active
[11]
  Activity: Active
[12]
  Activity: Active
[13]
  Activity: >50%
[14]
  Activity: Non-Toxic
[15]
  Activity: Non-Toxic
[16]
  Activity: Active
[17]
  Drug uptake: Active
[18]
  IC50: 26.5 nM
[19]
  Drug uptake: Active
[20]
  Activity: Non-Toxic
[21]
  Activity: Active
[22]
  Drug uptake: Active
[23]
  IC50: 171 nM
[24]
  Drug uptake: Active
[25]
  Activity: Active
[26]
  Drug uptake: Active
[27]
  Activity: Dose-Dependent Effect
[28]
  Activity: Dose-Dependent Effect
[29]
  Activity: >50%
[30]
  Drug uptake: Active
[31]
  Activity: Tde
[32]
  Drug uptake: Active

Reference: ChEMBL document CHEMBL5380834, “Design, Synthesis, and Biological Evaluation of Androgen Receptor (AR) Antagonist-Heat Shock Protein 90 (Hsp90) Inhibitor Conjugates for Targeted Therapy of Castration-Resistant Prostate Cancer” (J Med Chem, 2023)
